According to ChEMBL document CHEMBL1240419, “Synthesis and antibacterial activity of 3-O-carbamoyl derivatives of 6,11-di-O-methylerythromycin A: a novel class of acylides” (2010):
Converted amounts (≈) assume the structure as drawn.

Experiments:
Assay type in all cases: functional
Haemophilus influenzae [1] = assay: Antibacterial activity against ampicillin-susceptible Haemophilus influenzae ATCC 49247 by broth microdilution method
Haemophilus influenzae [2] = assay: Antibacterial activity against ampicillin-resistant Haemophilus influenzae 3300 by broth microdilution method
Staphylococcus aureus [3] = assay: Antibacterial activity against erythromycin-susceptible Staphylococcus aureus ATCC 25923 by broth microdilution method
Staphylococcus aureus [4] = assay: Antibacterial activity against erythromycin, methicillin-resistant Staphylococcus aureus A333 by broth microdilution method
Streptococcus pneumoniae [5] = assay: Antibacterial activity against erythromycin-susceptible Streptococcus pneumoniae ATCC 49619 by broth microdilution method
Staphylococcus aureus [6] = assay: Antibacterial activity against erythromycin-resistant, methicillin-susceptible Staphylococcus aureus A265 by broth microdilution method
Streptococcus pneumoniae [7] = assay: Antibacterial activity against erythromycin-resistant Streptococcus pneumoniae 3469 by broth microdilution method

Compound | MIC (Haemophilus influenzae [1]) [µg/mL] | MIC (Haemophilus influenzae [2]) [µg/mL] | MIC (Staphylococcus aureus [3]) [µg/mL] | MIC (Staphylococcus aureus [4]) [µg/mL] | MIC (Streptococcus pneumoniae [5]) [µg/mL] | MIC (Staphylococcus aureus [6]) [µg/mL] | MIC (Streptococcus pneumoniae [7]) [µg/mL]
CC[C@H]1OC(=O)[C@H](C)[C@@H](OC(=O)NCc2ccc(OC)cc2)[C@H](C)[C@@H](O[C@@H]2O[C@H](C)C[C@H](N(C)C)[C@H]2O)[C@](C)(OC)C[C@@H](C)C(=O)[C@@H](C)[C@@H](OC)[C@]1(C)O | 1 (≈ 1.3 µM) | 0.5 (≈ 0.652 µM) | 0.125 (≈ 0.163 µM) | > 64 | 0.5 (≈ 0.652 µM) | 0.125 (≈ 0.163 µM) | 0.5 (≈ 0.652 µM)
CC[C@H]1OC(=O)[C@H](C)[C@@H](OC(=O)NCc2ccc(F)cc2)[C@H](C)[C@@H](O[C@@H]2O[C@H](C)C[C@H](N(C)C)[C@H]2O)[C@](C)(OC)C[C@@H](C)C(=O)[C@@H](C)[C@@H](OC)[C@]1(C)O | 4 (≈ 5.3 µM) | 4 (≈ 5.3 µM) | 4 (≈ 5.3 µM) | > 64 | 0.125 (≈ 0.166 µM) | 0.125 (≈ 0.166 µM) | 0.125 (≈ 0.166 µM)
CC[C@H]1OC(=O)[C@H](C)[C@@H](OC(=O)NCc2ccc(Cl)cc2)[C@H](C)[C@@H](O[C@@H]2O[C@H](C)C[C@H](N(C)C)[C@H]2O)[C@](C)(OC)C[C@@H](C)C(=O)[C@@H](C)[C@@H](OC)[C@]1(C)O | 2 (≈ 2.59 µM) | 4 (≈ 5.19 µM) | 4 (≈ 5.19 µM) | > 64 | 0.125 (≈ 0.162 µM) | 0.125 (≈ 0.162 µM) | 0.5 (≈ 0.648 µM)
CC[C@H]1OC(=O)[C@H](C)[C@@H](OC(=O)NCc2ccc(Br)cc2)[C@H](C)[C@@H](O[C@@H]2O[C@H](C)C[C@H](N(C)C)[C@H]2O)[C@](C)(OC)C[C@@H](C)C(=O)[C@@H](C)[C@@H](OC)[C@]1(C)O | 2 (≈ 2.45 µM) | 2 (≈ 2.45 µM) | 0.125 (≈ 0.153 µM) | 32 (≈ 39.2 µM) | 0.125 (≈ 0.153 µM) | 0.125 (≈ 0.153 µM) | 0.125 (≈ 0.153 µM)
CC[C@H]1OC(=O)[C@H](C)[C@@H](OC(=O)NCc2ccc(O)cc2)[C@H](C)[C@@H](O[C@@H]2O[C@H](C)C[C@H](N(C)C)[C@H]2O)[C@](C)(OC)C[C@@H](C)C(=O)[C@@H](C)[C@@H](OC)[C@]1(C)O | 1 (≈ 1.33 µM) | 1 (≈ 1.33 µM) | 1 (≈ 1.33 µM) | > 64 | 1 (≈ 1.33 µM) | 0.25 (≈ 0.332 µM) | 32 (≈ 42.5 µM)
CC[C@H]1OC(=O)[C@H](C)[C@@H](OC(=O)NCc2ccc(C)cc2)[C@H](C)[C@@H](O[C@@H]2O[C@H](C)C[C@H](N(C)C)[C@H]2O)[C@](C)(OC)C[C@@H](C)C(=O)[C@@H](C)[C@@H](OC)[C@]1(C)O | 4 (≈ 5.33 µM) | 4 (≈ 5.33 µM) | 0.25 (≈ 0.333 µM) | 64 (≈ 85.2 µM) | 0.125 (≈ 0.166 µM) | 0.125 (≈ 0.166 µM) | 0.25 (≈ 0.333 µM)
CC[C@H]1OC(=O)[C@H](C)[C@@H](OC(=O)NCCc2ccccc2)[C@H](C)[C@@H](O[C@@H]2O[C@H](C)C[C@H](N(C)C)[C@H]2O)[C@](C)(OC)C[C@@H](C)C(=O)[C@@H](C)[C@@H](OC)[C@]1(C)O | 4 (≈ 5.33 µM) | 4 (≈ 5.33 µM) | 8 (≈ 10.7 µM) | > 64 | 4 (≈ 5.33 µM) | 8 (≈ 10.7 µM) | 64 (≈ 85.2 µM)
CC[C@H]1OC(=O)[C@H](C)[C@@H](OC(=O)NCCc2ccc(OC)cc2)[C@H](C)[C@@H](O[C@@H]2O[C@H](C)C[C@H](N(C)C)[C@H]2O)[C@](C)(OC)C[C@@H](C)C(=O)[C@@H](C)[C@@H](OC)[C@]1(C)O | 16 (≈ 20.5 µM) | 16 (≈ 20.5 µM) | 4 (≈ 5.12 µM) | > 64 | 0.125 (≈ 0.16 µM) | 8 (≈ 10.2 µM) | 0.125 (≈ 0.16 µM)
CC[C@H]1OC(=O)[C@H](C)[C@@H](OC(=O)NCCc2ccc(OC)c(OC)c2)[C@H](C)[C@@H](O[C@@H]2O[C@H](C)C[C@H](N(C)C)[C@H]2O)[C@](C)(OC)C[C@@H](C)C(=O)[C@@H](C)[C@@H](OC)[C@]1(C)O | 32 (≈ 39.5 µM) | 32 (≈ 39.5 µM) | 2 (≈ 2.47 µM) | > 64 | 0.125 (≈ 0.154 µM) | 8 (≈ 9.86 µM) | 0.25 (≈ 0.308 µM)
CC[C@H]1OC(=O)[C@H](C)[C@@H](OC(=O)NCCc2ccc(O)cc2)[C@H](C)[C@@H](O[C@@H]2O[C@H](C)C[C@H](N(C)C)[C@H]2O)[C@](C)(OC)C[C@@H](C)C(=O)[C@@H](C)[C@@H](OC)[C@]1(C)O | 8 (≈ 10.4 µM) | 8 (≈ 10.4 µM) | 4 (≈ 5.22 µM) | > 64 | 0.25 (≈ 0.326 µM) | 2 (≈ 2.61 µM) | 0.25 (≈ 0.326 µM)
CC[C@H]1OC(=O)[C@H](C)[C@@H](OC(=O)NCCc2ccc(F)cc2)[C@H](C)[C@@H](O[C@@H]2O[C@H](C)C[C@H](N(C)C)[C@H]2O)[C@](C)(OC)C[C@@H](C)C(=O)[C@@H](C)[C@@H](OC)[C@]1(C)O | 8 (≈ 10.4 µM) | 8 (≈ 10.4 µM) | 2 (≈ 2.6 µM) | 32 (≈ 41.6 µM) | 0.125 (≈ 0.163 µM) | 2 (≈ 2.6 µM) | 0.125 (≈ 0.163 µM)
CC[C@H]1OC(=O)[C@H](C)[C@@H](OC(=O)NCCc2ccccc2F)[C@H](C)[C@@H](O[C@@H]2O[C@H](C)C[C@H](N(C)C)[C@H]2O)[C@](C)(OC)C[C@@H](C)C(=O)[C@@H](C)[C@@H](OC)[C@]1(C)O | 16 (≈ 20.8 µM) | 16 (≈ 20.8 µM) | 8 (≈ 10.4 µM) | 64 (≈ 83.2 µM) | 0.125 (≈ 0.163 µM) | 16 (≈ 20.8 µM) | 0.125 (≈ 0.163 µM)
